Read-outs that look alike come from different tables or passages of the source.
Key:
[1] = tested on: HT-29; assay: cells
In short: (§1)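 Colorimetric SRB read (490 nm) on triplicate wells after 48 h at 37 °C, 5% CO2. Dose range 10 to 10^−8 μg/ml; 5×10^3 cells/well pre-attached 18 h.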

[2] = tested on: LoVo; assay: cells
In short: as §1

[3] = tested on: A-549; assay: cells
In short: as §1

[4] = tested on: HeLa; assay: Inhibition of cells growth by colorimetric assay (SRB)
In short: as §1

[5] = tested on: IGROV-1; assay: as above
In short: as §1

[6] = tested on: DU-145; assay: as above
In short: as §1

[7] = tested on: IGROV-ET; assay: as above
In short: as §1

[8] = tested on: LNCaP; assay: as above
In short: as §1

[9] = tested on: LoVo-Dox; assay: as above
In short: as §1

[10] = tested on: HeLa-APL; assay: as above
In short: as §1

[11] = tested on: PANC-1; assay: as above
In short: as §1

[12] = tested on: SK-BR-3; assay: as above
In short: as §1

[13] = tested on: SK-MEL-28; assay: as above
In short: as §1

[14] = tested on: K-562; assay: as above
In short: as §1

In the case of C=CCN1C2Cc3cc(C)c(OC)c(O)c3C1C1C3SCC(NC(C)=O)C(=O)OCC(c4c5c(c(C)c(OC(C)=O)c43)OCO5)N1C2C#N (stereo not drawn) [compound 24], the “TGI HT29” value ([1]; HT29, SRB, 48 hours exposure) is reported as 1.39E−08 Molar, the GI50 ([1]; read-out: GI50 HT29, HT29, SRB, 48 hours exposure) is reported as 0.00517 µM and the CC50 ([1]; read-out: LC50 HT29, HT29, SRB, 48 hours exposure) is reported as 14.5 µM. For the same compound, the “TGI LOVO” value ([2]; LOVO, SRB, 48 hours exposure) was 8.21E−08 Molar, the GI50 ([2]; read-out: GI50 LOVO, LOVO, SRB, 48 hours exposure) was 0.0261 µM and the CC50 ([2]; read-out: LC50 LOVO, LOVO, SRB, 48 hours exposure) was 14.5 µM. For the same compound, the “TGI A549” value ([3]; A549, SRB, 48 hours exposure) was 4.62E−08 Molar, the GI50 ([3]; read-out: GI50 A549, A549, SRB, 48 hours exposure) was 0.0219 µM and the CC50 ([3]; read-out: LC50 A549, A549, SRB, 48 hours exposure) was 0.0974 µM. For the same compound, the “TGI HELA” value ([4]; HELA, SRB, 48 hours exposure) was 4.76E−08 Molar, the GI50 ([4]; read-out: GI50 HELA, HELA, SRB, 48 hours exposure) was 0.0203 µM and the CC50 ([4]; read-out: LC50 HELA, HELA, SRB, 48 hours exposure) was 0.112 µM. For the same compound, the “TGI IGROV” value ([5]; IGROV, SRB, 48 hours exposure) was 3.18E−08 Molar, the GI50 ([5]; read-out: GI50 IGROV, IGROV, SRB, 48 hours exposure) was 0.00821 µM and the CC50 ([5]; read-out: LC50 IGROV, IGROV, SRB, 48 hours exposure) was 0.11 µM. The “TGI DU145” value ([6]; DU145, SRB, 48 hours exposure) was 5.23E−08 Molar, the GI50 ([6]; read-out: GI50 DU145, DU145, SRB, 48 hours exposure) was 0.0278 µM and the CC50 ([6]; read-out: LC50 DU145, DU145, SRB, 48 hours exposure) was 0.125 µM. The “TGI IGROV-ET” value ([7]; IGROV-ET, SRB, 48 hours exposure) was 6.20E−08 Molar, the GI50 ([7]; read-out: GI50 IGROV-ET, IGROV-ET, SRB, 48 hours exposure) was 0.0295 µM and the CC50 ([7]; read-out: LC50 IGROV-ET, IGROV-ET, SRB, 48 hours exposure) was 0.13 µM. For the same compound, the “TGI LNCAP” value ([8]; LNCAP, SRB, 48 hours exposure) was 2.53E−08 Molar, the GI50 ([8]; read-out: GI50 LNCAP, LNCAP, SRB, 48 hours exposure) was 0.0084 µM and the CC50 ([8]; read-out: LC50 LNCAP, LNCAP, SRB, 48 hours exposure) was 0.0644 µM. The “TGI LOVO-DOX” value ([9]; LOVO-DOX, SRB, 48 hours exposure) was 1.74E−06 Molar, the GI50 ([9]; read-out: GI50 LOVO-DOX, LOVO-DOX, SRB, 48 hours exposure) was 0.115 µM and the CC50 ([9]; read-out: LC50 LOVO-DOX, LOVO-DOX, SRB, 48 hours exposure) was 14.5 µM. For the same compound, the “TGI HELA-APL” value ([10]; HELA-APL, SRB, 48 hours exposure) was 4.65E−08 Molar, the GI50 ([10]; read-out: GI50 HELA-APL, HELA-APL, SRB, 48 hours exposure) was 0.0203 µM and the CC50 ([10]; read-out: LC50 HELA-APL, HELA-APL, SRB, 48 hours exposure) was 0.107 µM. The “TGI PANC-1” value ([11]; PANC-1, SRB, 48 hours exposure) was 9.19E−08 Molar, the GI50 ([11]; read-out: GI50 PANC-1, PANC-1, SRB, 48 hours exposure) was 0.0301 µM and the CC50 ([11]; read-out: LC50 PANC-1, PANC-1, SRB, 48 hours exposure) was 14.5 µM. For the same compound, the “TGI SK-BR3” value ([12]; SK-BR3, SRB, 48 hours exposure) was 6.38E−08 Molar, the GI50 ([12]; read-out: GI50 SK-BR3, SK-BR3, SRB, 48 hours exposure) was 0.0248 µM and the CC50 ([12]; read-out: LC50 SK-BR3, SK-BR3, SRB, 48 hours exposure) was 0.269 µM. The “TGI MEL-28” value ([13]; MEL-28, SRB, 48 hours exposure) was 4.27E−08 Molar, the GI50 ([13]; read-out: GI50 MEL-28, MEL-28, SRB, 48 hours exposure) was 0.0201 µM and the CC50 ([13]; read-out: LC50 MEL-28, MEL-28, SRB, 48 hours exposure) was 0.0909 µM. The “TGI K562” value ([14]; K562, SRB, 48 hours exposure) was 1.71E−08 Molar, the GI50 ([14]; read-out: GI50 K562, K562, SRB, 48 hours exposure) was 0.00407 µM and the CC50 ([14]; read-out: LC50 K562, K562, SRB, 48 hours exposure) was 0.0938 µM.
In the case of COc1c(C)cc2c(c1O)[C@H]1N[C@@H](C2)[C@H](O)N2C1[C@@H]1SC[C@]3(NCCc4c3[nH]c3ccc(O)cc43)C(=O)OC[C@H]2c2c3c(c(C)c(OC(C)=O)c21)OCO3 (stereo partly drawn) [compound 65], the GI50 ([1]; Homo sapiens, HT-29, 48 h, read-out: HT29 GI50) is reported as 0.00451 µM, the CC50 ([1]; Homo sapiens, HT-29, 48 h, read-out: HT29 LC50) is reported as 13.2 µM and the IC (TGI) ([1]; Homo sapiens, HT-29, 48 h, read-out: HT29 TGI) is reported as 0.196 µM. It also gave a GI50 ([2]; Homo sapiens, LoVo, 48 h, read-out: LOVO GI50) of 0.00678 µM, a CC50 ([2]; Homo sapiens, LoVo, 48 h, read-out: LOVO LC50) of 2.96 µM and an IC (TGI) ([2]; Homo sapiens, LoVo, 48 h, read-out: LOVO TGI) of 0.0369 µM. The GI50 ([3]; Homo sapiens, A549, 48 h, read-out: A549 GI50) was 0.0229 µM, the CC50 ([3]; Homo sapiens, A549, 48 h, read-out: A549 LC50) was 0.313 µM and the IC (TGI) ([3]; Homo sapiens, A549, 48 h, read-out: A549 TGI) was 0.056 µM. It also gave a GI50 ([4]; Homo sapiens, HeLa, 48 h, read-out: HELA GI50) of 0.00234 µM, a CC50 ([4]; Homo sapiens, HeLa, 48 h, read-out: HELA LC50) of 0.00999 µM and an IC (TGI) ([4]; Homo sapiens, HeLa, 48 h, read-out: HELA TGI) of 0.00482 µM. For the same compound, the GI50 ([5]; Homo sapiens, IGROV-1, 48 h, read-out: IGROV GI50) was 0.00407 µM, the CC50 ([5]; Homo sapiens, IGROV-1, 48 h, read-out: IGROV LC50) was 2.99 µM and the IC (TGI) ([5]; Homo sapiens, IGROV-1, 48 h, read-out: IGROV TGI) was 0.0114 µM. For the same compound, the GI50 ([6]; Homo sapiens, DU-145, 48 h, read-out: DU145 GI50) was 0.00263 µM, the CC50 ([6]; Homo sapiens, DU-145, 48 h, read-out: DU145 LC50) was 4.77 µM and the IC (TGI) ([6]; Homo sapiens, DU-145, 48 h, read-out: DU145 TGI) was 0.00645 µM. It also gave a GI50 ([7]; Homo sapiens, 48 h, read-out: IGROV-ET GI50) of 0.076 µM, a CC50 ([7]; Homo sapiens, 48 h, read-out: IGROV-ET LC50) of 3.3 µM and an IC (TGI) ([7]; Homo sapiens, 48 h, read-out: IGROV-ET TGI) of 0.406 µM. The GI50 ([8]; Homo sapiens, LNCaP, 48 h, read-out: LNCAP GI50) was 0.000875 µM, the CC50 ([8]; Homo sapiens, LNCaP, 48 h, read-out: LNCAP LC50) was 0.00616 µM and the IC (TGI) ([8]; Homo sapiens, LNCaP, 48 h, read-out: LNCAP TGI) was 0.00254 µM. The GI50 ([9]; Homo sapiens, 48 h, read-out: LOVO-DOX GI50) was 0.399 µM, the CC50 ([9]; Homo sapiens, 48 h, read-out: LOVO-DOX LC50) was 13.2 µM and the IC (TGI) ([9]; Homo sapiens, 48 h, read-out: LOVO-DOX TGI) was 1.05 µM. The GI50 ([10]; Homo sapiens, 48 h, read-out: HELA-APL GI50) was 0.002 µM, the CC50 ([10]; Homo sapiens, 48 h, read-out: HELA-APL LC50) was 0.00846 µM and the IC (TGI) ([10]; Homo sapiens, 48 h, read-out: HELA-APL TGI) was 0.0041 µM. For the same compound, the GI50 ([11]; Homo sapiens, PANC-1, 48 h, read-out: PANC-1 GI50) was 0.00399 µM, the CC50 ([11]; Homo sapiens, PANC-1, 48 h, read-out: PANC-1 LC50) was 4.25 µM and the IC (TGI) ([11]; Homo sapiens, PANC-1, 48 h, read-out: PANC-1 TGI) was 0.0123 µM. It also gave a GI50 ([12]; Homo sapiens, SK-BR-3, 48 h, read-out: SK-BR3 GI50) of 0.00297 µM, a CC50 ([12]; Homo sapiens, SK-BR-3, 48 h, read-out: SK-BR3 LC50) of 0.209 µM and an IC (TGI) ([12]; Homo sapiens, SK-BR-3, 48 h, read-out: SK-BR3 TGI) of 0.00766 µM. It also gave a GI50 ([13]; Homo sapiens, SK-MEL-28, 48 h, read-out: MEL-28 GI50) of 0.00378 µM, a CC50 ([13]; Homo sapiens, SK-MEL-28, 48 h, read-out: MEL-28 LC50) of 0.042 µM and an IC (TGI) ([13]; Homo sapiens, SK-MEL-28, 48 h, read-out: MEL-28 TGI) of 0.0108 µM. For the same compound, the GI50 ([14]; Homo sapiens, K562, 48 h, read-out: K562 GI50) was 0.00122 µM, the CC50 ([14]; Homo sapiens, K562, 48 h, read-out: K562 LC50) was 7.8 µM and the IC (TGI) ([14]; Homo sapiens, K562, 48 h, read-out: K562 TGI) was 0.0139 µM.

Source: patent US7767659B2, “Synthesis of naturally occurring ecteinascidins and related compounds” (Pharma Mar, S.A., priority 2002, dated 2010)
